Assay results as given in patent US20080008745A1, “Transdermal delivery of naltrexone hydrochloride, naltrexol hydrochloride, and bis(hydroxy-methyl)propionyl-3-0 ester naltrexone using microneedles” (UNIVERSITY OF KENTUCKY RESEARCH FOUNDATION, priority 2006, published 2008).
In brackets after ≈: the same amount, converted by molar mass. Counter-ions that a name gives are not always drawn. Like-named read-outs stand apart in the source and are kept apart here.

Columns and labels:
[1] = Solubility or concentration of Naltrexol base in 3:1 H2O:PG after pH adjustment; format: physicochemical; details: for Concentration in 3:1 H2O:PG: concentration of drug in solution, freely soluble in the ionized form; for Solubility in 3:1 H2O:PG: pH adjusted
Experimental: 100 mg of Naltrexol base was prepared in 3:1 H2O:PG. The solution was briefly vortexed and sonicated for 10 min. To obtain a mixture of pH 8.5 Naltrexol base, 0.5 N sodium hydroxide was added incrementally. The same procedure was performed to obtain a pH 4.5 solution, except 0.5 M HCl was added dropwise. […] The solution was saturated with excess solid when the pH was raised above the first pKa (7.4) of Naltrexol base.

[2] = In vitro skin diffusion study, flow-through diffusion cell, guinea pig skin
Experimental: Hairless guinea pig skin was harvested from euthanitized animals. Animal studies were approved by the University of Kentucky IACUC. Human skin harvested during abdominoplasty was used for the diffusion studies. Human tissue use was approved by the University of Kentucky Institutional Review Board. Skin sections were obtained by removing the subcutaneous fatty tissue by scalpel dissection and stored at −20° C. A PermeGear flow-through (In-Line, Riegelsville, Pa.) diffusion cell system was used for the skin permeation studies. Skin used for microneedle treatment was placed on a wafer of polydimethylsiloxane polymer, which mimicked the underlying resistance of tissue. The skin was poked 20 times with an array containing 5 MN before mounting the skin in the diffusion cell. Untreated skin samples were simply placed in the diffusion cells. Diffusion cells were kept at 32° C. with a circulating water bath. Data was collected by using skin from a single donor with three cells for untreated formulations and three to four cells for the MN treated formulations. The receiver solution was HEPES-buffered Hanks' balanced salts with gentamicin at pH 7.4, and the flow rate was adjusted to 1.1 mL/h. Each cell was charged with 0.25 mL of the respective drug solution. […] All samples were stored at 4° C. until processed by solid phase extraction.
The cumulative quantity of drug collected in the receiver compartment was plotted as a function of time. The flux value for a given experiment was obtained from the slope of the steady state portion of the cumulative amount of drug permeated, plotted over time. Apparent permeability coefficient values were calculated from Fick's First Law of diffusion: [formula]
Sink conditions were maintained in the receiver solution for the duration of the experiment, so ΔC was approximated by the drug concentration in the donor compartment.
The HPLC analysis was performed as described by Vaddi et al., Pharm. Res. 22 (2005) 758-765. The HPLC system consisted of a Waters 717plus autosampler, a Waters 1525 Binary HPLC pump, and a Waters 2487 Dual λ Absorbance detector with Waters Breeze software. A Brownlee C-18 reversed-phase Spheri-5 μm column (220×4.6 mm) with a C-18 reversed phase 7 μm guard column (15×3.2 mm) was used with the UV detector set at a wavelength of 215 nm. […] The mobile phase for Naltrexol consisted of 90:10 ACN:0.1% TFA adjusted to pH 3.0 with TEA. Samples were run for 10 min at 1 mL/min as described by Paudel et al., J. Pharm. Sci. 94 (2005) 1965-1975). One hundred microliters of sample was injected onto the column for both Naltrexone and Naltrexol. Samples were analyzed within the linear range of the standard curves.
The drugs were extracted from the buffer samples by solid phase extraction (30mg 1 cc Oasis® HLB, Waters Corp., Milford, Mass.) as described by Vaddi et al., Pharm. Res. 22 (2005) 758-765.
Before extracting the aqueous drug samples (5 mL), the cartridge was conditioned with 1 mL of methanol and 1 mL of nanopure water. After sample loading, the cartridge was washed with 1 mL of 5% methanol and the drug was eluted with ACN and analyzed by HPLC. A similar extraction method was employed for Naltrexol, except 2 mL of methanol was used in conditioning and 1 mL of nanopure water was also used to further wash the samples after being loaded onto the cartridge. The Naltrexol was eluted with 2 mL of isopropanol and finally with 1 mL ACN. Naltrexol samples were evaporated under nitrogen in a water bath maintained at 37° C. The samples were then reconstituted with 1 mL of ACN for HPLC analysis. Highly concentrated samples of Naltrexone and Naltrexol were further diluted 10 times in ACN.
The data obtained from the diffusion experiments were plotted as the cumulative amount of drug collected in the receiver compartment as a function of time.

[3] = Solubility in 3:1 PG:Hanks' buffer; format: physicochemical; details: for Solubility in 3:1 PG:Hanks Buffer: 32° C., 24 h
Experimental: An excess of Naltrexone HCl (˜350 mg) was added to 1 mL of 3:1 PG:Hanks' buffer. The saturated solution was then vortexed for 1 min, sonicated for 15 min, and placed in an incubator at 32° C. for 24 h while shaking on a belly shaker. Just before filtering, a glass syringe and 0.45 μm filter were heated in an incubator to 32° C. The solution was filtered and diluted with ACN for high pressure liquid chromatography (HPLC) analysis.

[4] = In vitro skin diffusion study, flow-through diffusion cell, human skin; format: in vitro ADME; details: for Papp at 48 h: human; for Lag time / NTX Flux: Human skin
[5] = human skin, passive diffusion without MN (Paudel et al.); cited from earlier work
[6] = In vivo pharmacokinetics in hairless guinea pigs, gel with or without microneedles; parameters: species or system hairless guinea pig
Experimental: In vivo studies of hairless guinea pigs were performed in order to obtain pharmacokinetic parameters for guinea pigs treated with 26 mg Naltrexol base gel, MN application followed by 26 mg Naltrexol base gel, 285 mg Naltrexol HCl gel and MN application followed by 285 mg Naltrexol HCl. The base was saturated in gel whereas the hydrochloride salt remained soluble in solution.

[7] = cited from earlier work
[8] = GP skin, MN Treated, High Dose, listed as Naltrexol pH 4.5
[9] = GP skin, No MN, High Dose, 3:1 H2O:PG
[10] = No MN GP skin, listed as Naltrexone base
[11] = MN application followed by gel (26 mg base or 285 mg HCl)
[12] = no MN, gel (26 mg Naltrexol base or 285 mg Naltrexol HCl)
[13] = MN Treated GP skin, 100 mg/ml Naltrexone base equivalent in 3:1 PG:water, 48 hours

Oc1ccc2c3c1O[C@H]1[C@H](O)CC[C@@]4(O)[C@@H](C2)N(CC2CC2)CC[C@]314 [NTXOL Base pH 4.5, 6-β-Naltrexol]
Concentration in 3:1 H2O:PG ([1]; High Dose): **292.40 mM
Concentration in 3:1 H2O:PG ([1]; Low Dose): **76.02 mM
Lag time ([2]; GP skin, MN Treated, High Dose): 6.58 ± 5.02 h
NTXOL Flux ([2]; GP skin, MN Treated, High Dose): 35.07 ± 8.18 nmol/cm^2/h
Lag time [2, 8]: 6.58 ± 5.02 h
NTXOL Flux [2, 8]: 35.07±8.18 nmol/cm^2/h
Lag time ([2]; GP skin, MN Treated, Low Dose): 10.33 ± 7.95 h
NTXOL Flux ([2]; GP skin, MN Treated, Low Dose): 71.98 ± 26.38 nmol/cm^2/h
Lag time ([2]; GP skin, No MN, High Dose): 25.97 ± 5.50 h
NTXOL Flux [2, 9]: 6.56 ± 6.49 nmol/cm^2/h
Lag time ([2]; GP skin, No MN, High Dose, listed as Naltrexol pH 4.5): 25.97 ± 5.50 h
Lag time ([2]; GP skin, No MN, Low Dose): 27.18 ± 1.31 h
NTXOL Flux ([2]; GP skin, No MN, Low Dose): 11.50 ± 4.20 nmol/cm^2/h
Flux enhancement relative to Naltrexone HCl ([2]; MN treated GP skin): 1.3 fold

O=C1CC[C@@]2(O)[C@H]3Cc4ccc(O)c5c4[C@@]2(CCN3CC2CC2)[C@H]1O5 [NTX Base, Naltrexone]
solubility at 24 h ([3]; 3:1 PG:Hanks' buffer, 32 °C, aqueous with cosolvent or surfactant or cyclodextrin, thermodynamic from solid, Eq. 2, read-out: Solubility S used for theoretical dosing): 300 mg/mL (≈ 879 mM)
Solubility in 3:1 PG:Hanks Buffer ([3]; listed as Naltrexone base): 43.6 mM (≈ 14900 µg/mL)
Lag time ([2]; MN GP skin): 18.91 ± 4.49 h
NTX Flux ([2]; MN GP skin, 3:1 PG:Hanks' buffer): 11.80 ± 5.02 nmol/cm^2/h
NTX Flux ([2]; MN GP skin, 3:1 PG:Hanks' buffer, listed as Naltrexone base): 11.80±5.02 nmol/cm^2/h
Lag time ([2]; MN GP skin, listed as Naltrexone base): 18.91 ± 4.49 h
Lag time ([2]; No MN GP skin): 21.22 ± 3.91 h
NTX Flux ([2]; No MN GP skin): 9.94 ± 2.75 nmol/cm^2/h
Lag time [2, 10]: 21.22 ± 3.91 h
NTX Flux [2, 10]: 9.94±2.75 nmol/cm^2/h
Maximum daily dose ([4]; 10 cm^2 patch, passive diffusion without MN, at solubility limit): 0.4 mg
Papp at 48 h ([4]; pH 7.4, microneedle-treated human skin, read-out: Permeability Kp (estimated) (converted)): 0.0194 ×10⁻⁶ cm/s
Permeability [5]: 0.03 ×10⁻⁶ cm/s

Oc1ccc2c3c1O[C@H]1[C@H](O)CC[C@@]4(O)[C@@H](C2)N(CC2CC2)CC[C@]314 [NTXOL Base pH 8.5, 6-β-Naltrexol]
Solubility in 3:1 H2O:PG [1]: 2.69 mM (≈ 924 µg/mL)
Solubility in 3:1 H2O:PG ([1]; listed as Naltrexol base at pH 8.5): 2.92 mM (≈ 1000 µg/mL)
Lag time ([2]; GP skin, MN Treated, High Dose): 17.53 ± 6.56 h
NTXOL Flux ([2]; GP skin, MN Treated, High Dose): 4.79 ± 2.62 nmol/cm^2/h
Lag time ([2]; GP skin, MN Treated, Low Dose): 15.67 ± 6.96 h
NTXOL Flux ([2]; GP skin, MN Treated, Low Dose): 15.19 ± 7.33 nmol/cm^2/h
Lag time ([2]; GP skin, No MN, High Dose): 24.34 ± 5.17 h
NTXOL Flux [2, 9]: 1.36 ± 0.91 nmol/cm^2/h
Lag time ([2]; GP skin, No MN, High Dose, listed as Naltrexol pH 8.5): 24.34 ± 5.17 h
Lag time ([2]; GP skin, No MN, Low Dose): 25.37 ± 1.10 h
NTXOL Flux ([2]; GP skin, No MN, Low Dose): 8.77 ± 4.08 nmol/cm^2/h

O=C1CC[C@@]2(O)[C@H]3Cc4ccc(O)c5c4[C@@]2(CCN3CC2CC2)[C@H]1O5 [NTX-HCl, Naltrexone Hydrochloride]
Solubility in 3:1 PG:Hanks Buffer ([3]; Hydrochloride): 794.4 mM
Flux enhancement by MN treatment ([2]; GP skin, MN vs untreated): 10 fold
NTX Flux ([2]; MN GP skin, 3:1 PG:Hanks' buffer, Hydrochloride): 27.16 ± 4.57 nmol/cm^2/h
NTX Flux ([2]; MN GP skin, 3:1 PG:Hanks' buffer, listed as Naltrexone HCl, Hydrochloride): 27.16±4.57 nmol/cm^2/h
Lag time ([2]; MN GP skin, Hydrochloride): 2.41 ± 3.85 h
Lag time ([2]; MN GP skin, listed as Naltrexone HCl, Hydrochloride): 2.41 ± 3.85 h
Lag time ([2]; No MN GP skin, Hydrochloride): 22.38 ± 7.68 h
NTX Flux ([2]; No MN GP skin, Hydrochloride): 2.71 ± 1.20 nmol/cm^2/h
Lag time ([2]; No MN GP skin, listed as Naltrexone HCl, Hydrochloride): 22.38 ± 7.68 h
Maximum daily dose (calculated from Eq. 2) ([4]; 10 cm^2 patch, MN-treated human skin, highest concentration measured): 5.0 mg
Lag time ([4]; MN): 12.06 ± 4.32 h
NTX Flux ([4]; MN): 18.54 ± 4.38 nmol/cm^2/h
Lag time ([4]; No MN): 23.66 ± 2.74 h
NTX Flux ([4]; No MN): 2.22 ± 0.72 nmol/cm^2/h
Flux enhancement by MN treatment ([4]; human skin, MN vs untreated, p<0.05): 8 fold
Papp at 48 h ([4]; pH 7.4, Human skin, MN, read-out: Permeability (converted)): 0.0194 ×10⁻⁶ cm/s
Papp at 48 h ([4]; pH 7.4, Human skin, No MN, read-out: Permeability (converted)): 0.00233 ×10⁻⁶ cm/s
Permeability Kp (estimated) ([4]; microneedle-treated human skin): 0.0194 ×10⁻⁶ cm/s

Cl.Oc1ccc2c3c1O[C@H]1[C@H](O)CC[C@@]4(O)[C@@H](C2)N(CC2CC2)CC[C@]314 [NTXOL HCl, Naltrexol Hydrochloride]
Flux ([2]; MN treated skin, earlier experiment): 36.12±1.77 nmol/cm^2/h
Flux ([2]; untreated skin, earlier experiment): 2.75±1.38 nmol/cm^2/h
Plasma concentrations compared to no microneedles and Naltrexol base ([6]; MN and gel therapy, FIG. 8): markedly higher
AUC [6, 11]: 1349 ± 616 ng·h/mL
Cmax [6, 11]: 48.5 ± 18.8 ng/mL
Css [6, 11]: 21.3 ± 6.9 ng/mL
Tlag [6, 11]: 0.7 ± 0.3 h
Tmax [6, 11]: 19.2 ± 11.5 h
AUC [6, 12]: 24.4 ng·h/mL
Cmax [6, 12]: 4.1 ng/mL
Css [6, 12]: 1.8 ± 1.68 ng/mL
Tlag [6, 12]: 1 h
Tmax [6, 12]: 7.0 h

CC(CO)(CO)C(=O)Oc1ccc2c3c1OC1C(=O)CCC4(O)C(C2)N(CC2CC2)CCC314 (centres unmarked) [NTX-Diol ester, bis(hydroxymethyl)propionyl-3-O-ester naltrexone]
Flux [2, 13]: 71.98 ± 26.38 nmol/cm^2/h
Lag time [2, 13]: 10.33 ± 7.95 h
Flux level relative to Naltrexone HCl with MN treatment ([2]; MN treated GP skin): approximately twice

Oc1ccc2c3c1O[C@H]1[C@H](O)CC[C@@]4(O)[C@@H](C2)N(CC2CC2)CC[C@]314 [NTXOL Base, 6-β-Naltrexol]
AUC [6, 11]: 303.1 ng·h/mL
Cmax [6, 11]: 8.5 ng/mL
Css [6, 11]: 5.04 ± 2.57 ng/mL
Tlag [6, 11]: 0.7 h
Tmax [6, 11]: 0.7 h
AUC [6, 12]: 50.5 ± 10.1 ng·h/mL
Cmax [6, 12]: 1.7 ± 0.5 ng/mL
Css [6, 12]: 0.95 ± 0.41 ng/mL
Tlag [6, 12]: 5.2 ± 1.6 h
Tmax [6, 12]: 40.1 ± 11.7 h
first pKa [7]: 7.4
